Experimental data as given in US5545639A, “Method of inhibiting transformed cells” (The United States of America as represented by the …, priority 1994, dated 1996).

What was measured:
Experiment in all cases: Dose response of growth, tumor cell line
Assay type in all cases: cell-based
[1] = system: NCI-H522; conditions: Homo sapiens, NCI-H522, non-small cell lung cancer
Protocol: (§1) Indeed, 70% of the cell lines were shown not only to experience precluded growth, but cell death, when exposed to less then 100 μM of the active ingredient.

[2] = system: KM20L2; conditions: Homo sapiens, KM-20L2, KM20L2, colon cancer
Protocol: as §1

[3] = system: CCRF-CEM; conditions: Homo sapiens, leukemia
Protocol: as §1

[4] = system: HT29; conditions: Homo sapiens, HT-29, HT29, colon cancer
Protocol: as §1

[5] = system: HL-60 (TB); conditions: Homo sapiens, leukemia
Protocol: as §1

[6] = system: OVCAR-8; conditions: Homo sapiens, OVCAR-8, ovarian cancer
Protocol: as §1

[7] = system: HOP-18; conditions: Homo sapiens, HOP-18, non-small cell lung cancer
Protocol: as §1

[8] = system: U251; conditions: Homo sapiens, U-251, U251, CNS cancer
Protocol: as §1

[9] = system: OVCAR-5; conditions: Homo sapiens, OVCAR-5, ovarian cancer
Protocol: as §1

[10] = system: NCI-H226; conditions: Homo sapiens, NCI-H226, non-small cell lung cancer
Protocol: as §1

[11] = system: MCF7/ADR-RES; conditions: Homo sapiens, miscellaneous
Protocol: as §1

[12] = system: HCT-116; conditions: Homo sapiens, HCT-116, colon cancer
Protocol: as §1

[13] = system: SK-MEL-5; conditions: Homo sapiens, SK-MEL-5, melanoma
Protocol: as §1

[14] = system: A549/ATCC; conditions: Homo sapiens, non-small cell lung cancer
Protocol: as §1

[15] = system: UACC-257; conditions: Homo sapiens, UACC-257, melanoma
Protocol: as §1

[16] = system: NCI-H23; conditions: Homo sapiens, NCI-H23, non-small cell lung cancer
Protocol: as §1

[17] = system: K-562; conditions: Homo sapiens, K562, K-562, leukemia
Protocol: as §1

[18] = system: OVCAR-3; conditions: Homo sapiens, OVCAR-3, ovarian cancer
Protocol: as §1

[19] = system: COLO 205; conditions: Homo sapiens, COLO 205, colon cancer
Protocol: as §1

[20] = system: SF-268; conditions: Homo sapiens, SF-268, CNS cancer
Protocol: as §1

[21] = system: MALME-3M; conditions: Homo sapiens, melanoma
Protocol: as §1

[22] = system: SNB-75; conditions: Homo sapiens, SNB-75, CNS cancer
Protocol: as §1

[23] = system: SNB-78; conditions: Homo sapiens, SNB-78, CNS cancer
Protocol: as §1

[24] = system: SF-539; conditions: Homo sapiens, SF-539, CNS cancer
Protocol: as §1

[25] = read-out: 50% Growth (Relative to Control)
[26] = read-out: No Growth (Relative to Control)

Molecule `ClCc1ccc2ccc3ccc(CCl)nc3c2n1` [2,9-bis(chloromethyl)-1,10-phenanthroline] has an IC50 [1, 25] of 1.76 µM, a CC50 ([1]; read-out: 50% Loss (50% kill)) of 6.71 µM and an IC100 [1, 26] of 3.44 µM. The IC50 [2, 25] was 2.72 µM, the CC50 ([2]; read-out: 50% Loss (50% kill)) was 28.3 µM and the IC100 [2, 26] was 7.21 µM. The IC50 [3, 25] was 1.8 µM, the CC50 ([3]; read-out: 50% Loss (50% kill)) was over 100 µM and the IC100 [3, 26] was 8.64 µM. The IC50 [4, 25] was 1.31 µM, the CC50 ([4]; read-out: 50% Loss (50% kill)) was 5.48 µM and the IC100 [4, 26] was 2.68 µM. For the same molecule, the IC50 [5, 25] was 1.8 µM, the CC50 ([5]; read-out: 50% Loss (50% kill)) was 23 µM and the IC100 [5, 26] was 4.43 µM. It also gave an IC50 [6, 25] of 6.85 µM, a CC50 ([6]; read-out: 50% Loss (50% kill)) of over 100 µM and an IC100 [6, 26] of over 100 µM. The IC50 [7, 25] was 3.02 µM, the CC50 ([7]; read-out: 50% Loss (50% kill)) was 31.2 µM and the IC100 [7, 26] was 9.71 µM. It also gave an IC50 [8, 25] of 2.06 µM, a CC50 ([8]; read-out: 50% Loss (50% kill)) of 8.11 µM and an IC100 [8, 26] of 4.09 µM. The IC50 [9, 25] was 1.87 µM, the CC50 ([9]; read-out: 50% Loss (50% kill)) was 6.63 µM and the IC100 [9, 26] was 3.52 µM. For the same molecule, the IC50 [10, 25] was 3.06 µM, the CC50 ([10]; read-out: 50% Loss (50% kill)) was 68.3 µM and the IC100 [10, 26] was 9.91 µM. It also gave an IC50 [11, 25] of 1.93 µM, a CC50 ([11]; read-out: 50% Loss (50% kill)) of over 100 µM and an IC100 [11, 26] of 4.48 µM. The IC50 [12, 25] was 1.8 µM, the CC50 ([12]; read-out: 50% Loss (50% kill)) was 8.31 µM and the IC100 [12, 26] was 3.87 µM. It also gave an IC50 [13, 25] of 1.59 µM, a CC50 ([13]; read-out: 50% Loss (50% kill)) of 9.45 µM and an IC100 [13, 26] of 3.88 µM. The IC50 [14, 25] was 5.14 µM, the CC50 ([14]; read-out: 50% Loss (50% kill)) was over 100 µM and the IC100 [14, 26] was over 100 µM. It also gave an IC50 [15, 25] of 0.78 µM, a CC50 ([15]; read-out: 50% Loss (50% kill)) of 5.58 µM and an IC100 [15, 26] of 2.03 µM. It also gave an IC50 [16, 25] of 1.87 µM, a CC50 ([16]; read-out: 50% Loss (50% kill)) of 7.24 µM and an IC100 [16, 26] of 3.68 µM. For the same molecule, the IC50 [17, 25] was 3.19 µM, the CC50 ([17]; read-out: 50% Loss (50% kill)) was over 100 µM and the IC100 [17, 26] was over 100 µM. The IC50 [18, 25] was 1.75 µM, the CC50 ([18]; read-out: 50% Loss (50% kill)) was 18.4 µM and the IC100 [18, 26] was 4.93 µM. The IC50 [19, 25] was 1.56 µM, the CC50 ([19]; read-out: 50% Loss (50% kill)) was 5.54 µM and the IC100 [19, 26] was 2.94 µM. It also gave an IC50 [20, 25] of 1.79 µM, an IC100 [20, 26] of 3.74 µM and an IC50 [21, 25] of 1.89 µM. It also gave a CC50 ([21]; read-out: 50% Loss (50% kill)) of 6.16 µM, an IC100 [21, 26] of 3.41 µM and an IC50 [22, 25] of 1.72 µM. It also gave a CC50 ([22]; read-out: 50% Loss (50% kill)) of 15.5 µM, an IC100 [22, 26] of 4.53 µM and an IC50 [23, 25] of 2.3 µM. For the same molecule, the CC50 ([23]; read-out: 50% Loss (50% kill)) was over 100 µM, the IC100 [23, 26] was 6.4 µM and the IC50 [24, 25] was 2.99 µM. For the same molecule, the CC50 ([24]; read-out: 50% Loss (50% kill)) was 41.8 µM and the IC100 [24, 26] was 11.2 µM.
